Data reported in patent publication US10745382B2 (BRISTOL-MYERS SQUIBB COMPANY, priority 2015, dated 2020).

Molecular target: T1, PD-1/PD-L1 (Homo sapiens, UniProt Q9NZQ7)
T1 construct: made in house; host or cells: HEK293T
Test: PD-1/PD-L1 Homogenous Time-Resolved Fluorescence (HTRF) binding assay
Details: PD-L1-His 10 nM, PD-1-Ig 20 nM; numeric IC50; read-out: Range or IC50
Procedure, shortened: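 dPBS + 0.1% BSA + 0.05% Tween-20 buffer; Eu-cryptate anti-Ig 1 nM final, APC anti-His 20 nM final; HTRF read. Counter-assays: PD-1-Ig/PD-L2-His 20 & 5 nM, CD80-His/PD-L1-Ig 100 & 10 nM.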

T1 sequence (Q9NZQ7 with tags, fused parts or gaps): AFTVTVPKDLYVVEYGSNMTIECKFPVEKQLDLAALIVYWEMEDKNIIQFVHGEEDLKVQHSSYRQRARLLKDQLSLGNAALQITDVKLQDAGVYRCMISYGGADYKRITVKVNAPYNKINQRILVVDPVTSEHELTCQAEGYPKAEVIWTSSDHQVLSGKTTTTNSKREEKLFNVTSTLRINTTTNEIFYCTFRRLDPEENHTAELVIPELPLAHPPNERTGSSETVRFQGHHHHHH

IC50 [nM] | Compound
37 | Cc1c(COc2cc(OCc3cncc(C#N)c3)c(CN3CCCC[C@H]3C(=O)O)cc2Cl)cccc1-c1cccc(OCC(=O)N2CC[C@H](O)C2)c1 [Example 1005, (S)-1-(5-chloro-2-((5-cyanopyridin-3-yl)methoxy)-4-((3′-(2-((S)-3-hydroxypyrrolidin-1-yl)-2-oxoethoxy)-2-methyl-[1,1′-biphenyl]-3-yl)methoxy)benzyl)piperidine-2-carboxylic Acid]

Same assay, conditions: PD-L1-His 10 nM, PD-1-Ig 20 nM; value given as range class; read-out: Range or IC50

Compound | IC50 [nM]
Cc1c(COc2cc(OCc3cncc(C#N)c3)c(CN3CCCC[C@H]3C(=O)O)cc2Cl)cccc1-c1cccc(OCCCN2CCOC(c3ccccc3)C2)c1C (stereo partly drawn) [Example 3056, (2S)-1-(5-chloro-2-((5-cyanopyridin-3-yl)methoxy)-4-((2,2′-dimethyl-3′-(3-(2-phenylmorpholino)propoxy)-[1,1′-biphenyl]-3-yl)methoxy)benzyl)piperidine-2-carboxylic Acid] | 0.21 to 10
Cc1c(COc2cc(OCc3cncc(S(C)(=O)=O)c3)c(CN[C@H](CO)C(=O)O)cc2Cl)cccc1-c1cccc(OCCCN2CCC(O)(C(=O)O)CC2)c1C [Example 1040, (R)-1-(3-((3′-((4-(((1-carboxy-2-hydroxyethyl)amino)methyl)-2-chloro-5-((5-(methylsulfonyl)pyridin-3-yl)methoxy)phenoxy)methyl)-2,2′-dimethyl-[1,1′-biphenyl]-3-yl)oxy)propyl)-4-hydroxypiperidine-4-carboxylic Acid] | 0.21 to 10
Cc1cc(OCCCCN2CC[C@@H](O)C2)ccc1-c1cccc(COc2cc(OCc3cncc(C#N)c3)c(CN[C@H](CO)C(=O)O)cc2Cl)c1C [Example 1092, (5-chloro-2-((5-cyanopyridin-3-yl)methoxy)-4-((4′-(4-((R)-3-hydroxypyrrolidin-1-yl)butoxy)-2,2′-dimethyl-[1,1′-biphenyl]-3-yl)methoxy)benzyl)-D-serine] | 0.21 to 10
Cc1c(COc2cc(OCc3cncc(C#N)c3)c(CN3CCCC[C@H]3C(=O)O)cc2Cl)cccc1-c1cccc(OCCCN(C)Cc2cccnc2)c1C [Example 2226, (2S)-1-(5-chloro-2-((5-cyanopyridin-3-yl)methoxy)-4-((2,2′-dimethyl-3′-(3-(methyl(pyridin-3-ylmethyl)amino)propoxy)biphenyl-3-yl)methoxy)benzyl)piperidine-2-carboxylic Acid] | 0.21 to 10
CCOC(=O)C1(CO)CCN(CCCOc2cccc(-c3cccc(COc4cc(OCc5cncc(C#N)c5)c(CN5CCC(CO)(C(=O)OCC)C5)cc4Cl)c3C)c2Cl)C1 (stereo not shown) [Example 1104, ethyl 1-(3-((2-chloro-3′-((2-chloro-5-((5-cyanopyridin-3-yl)methoxy)-4-((3-(ethoxycarbonyl)-3-(hydroxymethyl)pyrrolidin-1-yl)methyl)phenoxy)methyl)-2′-methyl-[1,1′-biphenyl]-3-yl)oxy)propyl)-3-(hydroxymethyl)pyrrolidine-3-carboxylate] | 10 to 100
tert-butyl (S)-3-(((3′-((2-chloro-5-((5-cyanopyridin-3-yl)methoxy)-4-(((1,3-dihydroxypropan-2-yl)amino)methyl)phenoxy)methyl)-2,2′-dimethyl-[1,1′-biphenyl]-3-yl)oxy)methyl)pyrrolidine-1-carboxylate [Example 2322] | 10 to 100
Cc1c(COc2cc(OCc3ccc(F)c(F)c3)c(CNC(C)(CO)CO)cc2Cl)cccc1-c1cccc(OCCCN2CC[C@@H](O)C2)c1C [Example 4510, (R)-2-((5-chloro-2-((3,4-difluorobenzyl)oxy)-4-((3′-(3-(3-hydroxypyrrolidin-1-yl)propoxy)-2,2′-dimethyl-[1,1′-biphenyl]-3-yl)methoxy)benzyl)amino)-2-methylpropane-1,3-diol] | 10 to 100
Cc1c(COc2cc(OCc3cncc(C#N)c3)c(CN3CCCC[C@H]3C(=O)O)cc2Cl)cccc1-c1cccc(OCCCN2[C@@H]3CC[C@H]2CC(O)C3)c1C (stereo partly drawn) [Example 3048, (2S)-1-(5-chloro-2-((5-cyanopyridin-3-yl)methoxy)-4-((3′-(3-((1R,5S)-3-hydroxy-8-azabicyclo[3.2.1]octan-8-yl)propoxy)-2,2′-dimethyl-[1,1′-biphenyl]-3-yl)methoxy)benzyl)piperidine-2-carboxylic Acid] | 0.21 to 10
Cc1c(COc2cc(OCc3cncc(C#N)c3)c(CN3CCCC[C@H]3C(=O)O)cc2Cl)cccc1-c1cccc(O[C@H](C)CCN2CC[C@@H](O)C2)c1Cl [Example 1523] | 0.21 to 10
CCOC(=O)CC1(O)CCN(CCC2COc3ccc(-c4cccc(COc5cc(OCc6cncc(S(C)(=O)=O)c6)c(CN6CCCC[C@H]6C(=O)OC)cc5Cl)c4C)cc3O2)C1 (mixture of isomers) [Example 1527, (2S)-methyl 1-(5-chloro-4-((3-(3-(2-(3-(2-ethoxy-2-oxoethyl)-3-hydroxypyrrolidin-1-yl)ethyl)-2,3-dihydrobenzo[b][1,4]dioxin-6-yl)-2-methylbenzyl)oxy)-2-((5-(methylsulfonyl)pyridin-3-yl)methoxy)benzyl)piperidine-2-carboxylate] | 10 to 100
Cc1c(COCCN2CC[C@@H](O)C2)cccc1-c1cccc(COc2cc(OCc3cncc(C#N)c3)c(CN3CCCC[C@H]3C(=O)O)cc2Cl)c1C [Example 4126, (S)-1-(5-chloro-2-((5-cyanopyridin-3-yl)methoxy)-4-((3′-((2-((R)-3-hydroxypyrrolidin-1-yl)ethoxy)methyl)-2,2′-dimethyl-[1,1′-biphenyl]-3-yl)methoxy)benzyl)piperidine-2-carboxylic Acid] | 0.21 to 10
COC(=O)C1(O)CCN(CCCOc2cccc(-c3cccc(COc4cc(OCc5cncc(S(C)(=O)=O)c5)c(CN[C@H](CO)C(=O)O)cc4Cl)c3C)c2C)CC1 [Example 1038, (R)-2-((5-chloro-4-((3′-(3-(4-hydroxy-4-(methoxycarbonyl)piperidin-1-yl)propoxy)-2,2′-dimethyl-[1,1′-biphenyl]-3-yl)methoxy)-2-((5-(methylsulfonyl)pyridin-3-yl)methoxy)benzyl)amino)-3-hydroxypropanoic Acid] | 0.21 to 10

More lines, now with the values ahead:

IC50 [nM] | Compound
0.21 to 10 | CCC[C@H](NCc1cc(Cl)c(OCc2cccc(-c3cccc(OCCCN4CC[C@@H](O)C4)c3C)c2C)cc1OCc1cncc(C#N)c1)C(=O)O [Example 4154, (S)-2-((5-chloro-2-((5-cyanopyridin-3-yl)methoxy)-4-((3′-(3-((R)-3-hydroxypyrrolidin-1-yl)propoxy)-2,2′-dimethyl-[1,1′-biphenyl]-3-yl)methoxy)benzyl)amino)pentanoic Acid]
0.21 to 10 | COC(=O)C1(C)CCCCN1Cc1cc(Cl)c(OCc2cccc(-c3cccc(OCCCN4CC[C@@H](O)C4)c3Cl)c2C)cc1OCc1cncc(C#N)c1 (stereo partly drawn) [Example 3070, methyl 1-(5-chloro-4-((2′-chloro-3′-(3-((R)-3-hydroxypyrrolidin-1-yl)propoxy)-2-methyl-[1,1′-biphenyl]-3-yl)methoxy)-2-((5-cyanopyridin-3-yl)methoxy)benzyl)-2-methylpiperidine-2-carboxylate]
0.21 to 10 | Cc1c(COc2cc(OCc3cncc(C#N)c3)c(CN[C@@](C)(CO)C(=O)O)cc2Cl)cccc1-c1cccc(OCCCN2CC[C@H](CO)[C@H](O)C2)c1C [Example 2261, (2S)-2-(5-chloro-2-((5-cyanopyridin-3-yl)methoxy)-4-((3′-(3-((3 S,4R)-3-hydroxy-4-(hydroxymethyl)piperidin-1-yl)propoxy)-2,2′-dimethylbiphenyl-3-yl)methoxy)benzylamino)-3-hydroxy-2-methylpropanoic Acid]
0.21 to 10 | Cc1c(COc2cc(OCc3cncc(C#N)c3)c(CNC(C)(CO)C(=O)O)cc2Cl)cccc1-c1cccc(OCCCN2CCC(CO)(C(=O)O)C2)c1C (single isomer, unassigned) [Example 1067]
0.21 to 10 | Cc1c(CCCCN2CC[C@@H](O)C2)cccc1-c1cccc(COc2cc(OCc3cncc(C#N)c3)c(CN3C[C@H](O)C[C@H]3C(=O)O)cc2Cl)c1C [Example 4062, (2S,4R)-1-(5-chloro-2-((5-cyanopyridin-3-yl)methoxy)-4-((3′-(4-((R)-3-hydroxypyrrolidin-1-yl)butyl)-2,2′-dimethyl-[1,1′-biphenyl]-3-yl)methoxy)benzyl)-4-hydroxypyrrolidine-2-carboxylic Acid]
0.21 to 10 | Cc1c(COc2cc(OCc3cncc(C#N)c3)c(CN(C)C3(C(=O)O)CC3)cc2Cl)cccc1-c1cccc(OCCCN2CC[C@@H](O)C2)c1C [Example 4134, (R)-1-((5-chloro-2-((5-cyanopyridin-3-yl)methoxy)-4-((3′-(3-(3-hydroxypyrrolidin-1-yl)propoxy)-2,2′-dimethyl-[1,1′-biphenyl]-3-yl)methoxy)benzyl)(methyl)amino)cyclopropane-1-carboxylic Acid]
0.21 to 10 | Cc1c(COc2cc(OCc3cncc(C#N)c3)c(CN3CCCC[C@H]3C(=O)O)cc2Cl)cccc1-c1cccc(OCCCN[C@@H](CO)C(C)C)c1C [Example 2237, (2S)-1-(5-chloro-2-((5-cyanopyridin-3-yl)methoxy)-4-((3′-(3-((R)-1-hydroxy-3-methylbutan-2-ylamino)propoxy)-2,2′-dimethylbiphenyl-3-yl)methoxy)benzyl)piperidine-2-carboxylic Acid]
0.21 to 10 | Cc1c(COc2cc(OCc3cncc(C#N)c3)c(CN[C@@H](CC(C)C)C(=O)O)cc2Cl)cccc1-c1cccc(OCCCN2CC[C@@H](O)C2)c1C [Example 4153, (5-chloro-2-((5-cyanopyridin-3-yl)methoxy)-4-((3′-(3-((R)-3-hydroxypyrrolidin-1-yl)propoxy)-2,2′-dimethyl-[1,1′-biphenyl]-3-yl)methoxy)benzyl)-L-leucine]
0.21 to 10 | Cc1c(COc2cc(OCc3cncc(C#N)c3)c(CNC(CO)CO)cc2Cl)cccc1-c1cccc(OCC2(CN3CC[C@@H](O)C3)CC2)c1C [Example 2342, (R)-5-((4-chloro-2-(((1,3-dihydroxypropan-2-yl)amino)methyl)-5-((3′-((1-((3-hydroxypyrrolidin-1-yl)methyl)cyclopropyl)methoxy)-2,2′-dimethyl-[1,1′-biphenyl]-3-yl)methoxy)phenoxy)methyl)nicotinonitrile]
